Reference: US20090197819A1, “Compositions for improving and repairing skin” (priority 2007, published 2009)

Tests used:
Fibroblast cell cultures = test: Recovery of ATP in cultured fibroblasts after hypoxic stress; type: cell-based; details: fibroblasts at about 80% confluence, six hours hypoxic atmosphere, fresh medium, inspected at 12, 24 and 48 hours; first experiment
Procedure: Based on this information, Applicants believe that the same effect might be shown in cell culture with skin cells. The first skin cell be tested in vitro was the fibroblast, the culture of which is well known. The Coriell Institute for medical research publishes a web site with detailed instructions, the teachings of which are incorporated by reference. (Http:/locus.umdnj.edu/cer/faq/fibro.html.) Fibroblast cell cultures were tested to determine an optimal level of ribose as compared to glucose control.
To determine a protective effect of ribose, test and control plates were grown to about 80% confluence and subjected to a simulated environmental stress, six hours under an hypoxic atmosphere. Following exposure, the medium was aspirated off the culture and fresh medium applied. Cultures were inspected at 12, 24 and 48 hours to determine recovery of ATP to pre-hypoxia levels.

skin = test: Preliminary application of ribose to skin without penetrant; type: in vivo; details: topical, no penetrant
From the text: The skin is a barrier. Preliminary effects to determine the effect on improving skin by the application of ribose were unsuccessful, leading the Applicants to the realization that ribose may not have penetrated to the basal cells and dermis. To get penetration it is advantageous to provide a penetrant to increase the concentration of active ingredient at the dermis and epidermis. A preferred penetrant is ethanol, which will be incorporated into the composition at a concentration of 0.1 to 15%, most preferably 10% weight to volume. The active ingredient may be at a concentration of from 0.5 to 10%, preferably 1%, weight to volume.

lymphocytes = details: previously shown by Applicants; cited from earlier work
skeletal muscle = details: oral administration; cited from earlier work

SMILES: O=C[C@H](O)[C@H](O)[C@H](O)CO [D-ribose]
- recovery of ATP to pre-hypoxia levels (of base ATP levels) (Fibroblast cell cultures): 19%
- effect on improving skin by the application of ribose (skin): unsuccessful
- growth of lymphocytes in cell culture (lymphocytes): stimulates the growth
- ATP levels in skeletal muscle (skeletal muscle): raises ATP levels
